The nature of series [1]: Solubility in HCl 0.01N (pH 1.0) and phosphate saline buffer (pH 7.4), LC-MSMS. The note with it: thermodynamic from solid.
Procedure: (§1) For each compound, three solutions were prepared in HCl 0.01N (pH 1.0) at 500 μM and three solutions in phosphate saline buffer (pH 7.4) at 500 μM. The solutions were prepared by dissolving each compound in the adequate solvent in opaque tubes and stirred 24 hours at room temperature. After 24 hours, for each solution, an aliquot was centrifuged 10 minutes at 3 500 rpm in order to separate the insoluble fraction from the soluble fraction. The supernatant was taken and diluted in H2O (1/20) before injection in LC-MSMS. After HPLC separation, analytes are detected and quantified by mass spectrometry. A standard curve is performed for each test substance. The solubility of each test substance was determined by calculating the concentration of each supernatant according to the standard curve.
The next series in a line: physchem. The note with it: pH 7.4, aqueous buffer, thermodynamic from solid.
The target of another series is Cathepsin B (Homo sapiens, UniProt P07858). Kind of series: Cathepsin-B mediated drug release test. The format is in vitro ADME. The note with it: 10 units/mL activated Cathepsin B, 25 mM sodium acetate pH 5.5, 37° C., 0-120 min, LC-MS of released free drug (FIG. 1). How it is done:
Drug release of (Z)-3-(2-(5-bromo-1H-indol-3-yl)-2-cyanovinyl)-4-methoxybenzonitrile from Example 27 was performed using cathepsin B enzyme.
Cathepsin B (50 units/mL) was preincubated in activation buffer containing 25 mM sodium acetate (pH 5.5), 30 mM DTT and 15 mM EDTA for 15 min at 37° C. and then added as a 20% (v/v) addition to initiate each reaction.
Final in vitro cathepsin B reaction mixtures will contain 25 mM sodium acetate (pH 5.5), 10 units/mL activated Cathepsin B, 30 mM DTT and 15 mM EDTA, and 0.5 μg/mL of Example 27 in a 2.5% (v/v) incubation sample background.
Reactions will be terminated by addition of organic solvent and the supernatant analyzed by LC-MS to quantify released free drug.

Setting [2] is: HCl 0.01N, pH 1, simulated gastric fluid.
The mark [3] stands for this setting: phosphate saline buffer, pH 7.4, aqueous buffer.

In brackets after ≈: the same amount, converted by molar mass. Structures can show the parent of a compound that is named as a salt. Some results are limits rather than exact numbers.

As usually defined, the solubility is the concentration that dissolves in the medium under given conditions. Read a high solubility as much dissolved substance.

Procedure for physchem: as §1

Regarding `COc1ccc2c(/C(C#N)=C/c3cc(C#N)ccc3OC)cn(C(=O)CCCCCCP(=O)([O-])O)c2c1.[Na+]` [Example 12, sodium (Z)-hydrogen7-(3-(1-cyano-2-(5-cyano-2-methoxyphenyl)vinyl)-6-methoxy-1H-indol-1-yl)-7-oxoheptylphosphonate], the solubility at 24 h was 109 µM in series [1] (setting [2]) and 465 µM in series [1] (setting [3]).
With `COc1ccc(C#N)cc1/C=C(\C#N)c1cn(C(=O)OCc2ccc(NC(=O)[C@H](CCCNC(N)=O)NC(=O)[C@@H](NC(=O)CCOCCOCCOCCOCCNC(=O)CCN3C(=O)C=CC3=O)C(C)C)cc2)c2ccc(Br)cc12` [Example 22, [4-[[(2S)-2-[[(2S)-2-[3-[2-[3-(2,5-dioxopyrrol-1-yl)propanoylamino]ethoxy](peg4)propanoylamino]-3-methyl-butanoyl]amino]-5-ureido-pentanoyl]amino]phenyl]methyl 5-bromo-3-[(Z)-1-cyano-2-(5-cyano-2-methoxy-phenyl)vinyl]indole-1-carboxylate], in “physchem”, the concentration in solution (solubility) was 2 µM (≈ 2.36 µg/mL).
As to `COc1ccc(C#N)cc1/C=C(\C#N)c1cn(C(=O)OCc2ccc(NC(=O)[C@H](CCCNC(N)=O)NC(=O)[C@@H](NC(=O)[C@H](CS(=O)(=O)O)NC(=O)CCOCCOCCOCCOCCNC(=O)CCN3C(=O)C=CC3=O)C(C)C)cc2)c2ccc(Br)cc12` [Example 26], the solubility in “physchem” came out at 175 µM (≈ 233 µg/mL).
Turning to `COc1ccc(C#N)cc1/C=C(\C#N)c1cn(C(=O)CCCCCCP(=O)(O)O)c2ccc(Br)cc12` [Example 3, (Z)-7-(5-bromo-3-(1-cyano-2-(5-cyano-2-methoxyphenyl)vinyl)-1H-indol-1-yl)-7-oxoheptylphosphonic acid], in series [1] (setting [3]), the concentration in solution (solubility at 24 h) was 294 µM (≈ 168 µg/mL).
On the same count and under the same terms, then `COc1ccc(C#N)cc1/C=C(\C#N)c1cn(C(=O)CCCCP(=O)([O-])[O-])c2ccc(Br)cc12.[Na+].[Na+]` [Example 14, disodium (Z)-5-(5-bromo-3-(1-cyano-2-(5-cyano-2-methoxyphenyl)vinyl)-1H-indol-1-yl)-5-oxopentylphosphonate], with 180 µM.
With `COc1ccc(C#N)cc1/C=C(\C#N)c1cn(C(=O)OCc2ccc(NC(=O)[C@H](CCCNC(N)=O)NC(=O)[C@@H](NC(=O)[C@H](CS(=O)(=O)O)NC(=O)CCOCCOCCOCCOCCNC(=O)CCN3C(=O)CC(SC[C@H](NC(C)=O)C(=O)O)C3=O)C(C)C)cc2)c2ccc(Br)cc12` (stereo partly drawn) [Example 27, N-acetyl-S-(1-((R)-2-(((S)-1-(((S)-1-((4-(((5-bromo-3-((Z)-1-cyano-2-(5-cyano-2-methoxyphenyl)vinyl)-1H-indole-1-carbonyl)oxy)methyl)phenyl)amino)-1-oxo-5-ureidopentan-2-yl)amino)-3-methyl-1-oxobutan-2-yl)carbamoyl)-4,20-dioxo-1-sulfo-7,10,13,16-tetraoxa-3,19-diazadocosan-22-yl)-2,5-dioxopyrrolidin-3-yl)-L-cysteine], at Cathepsin B, the “Drug release of (Z)-3-(2-(5-bromo-1H-indol-3-yl)-2-cyanovinyl)-4-methoxybenzonitrile” value is given as “efficient drug release”.
`COc1ccc(C#N)cc1/C=C(\C#N)c1cn(C(=O)OCc2ccc(NC(=O)[C@H](CCCNC(N)=O)NC(=O)[C@@H](NC(=O)C(CS(=O)(=O)O)NC(=O)OC(C)(C)C)C(C)C)cc2)c2ccc(Br)cc12` (some centres unmarked) [Example 24]: the solubility in the series “physchem” was 201 µM (≈ 208 µg/mL).
Consider `COc1ccc(C#N)cc1/C=C(\C#N)c1cn(C(=O)CCCCCCP(=O)([O-])O)c2ccc(Br)cc12.[Na+]` [Example 10, sodium (Z)-hydrogen7-(5-bromo-3-(1-cyano-2-(5-cyano-2-methoxyphenyl)vinyl)-1H-indol-1-yl)-7-oxoheptylphosphonate], for which the solubility at 24 h was 93 µM in series [1] (setting [2]) and 141 µM in series [1] (setting [3]).
For `COc1ccc(C#N)cc1/C=C(\C#N)c1cn(C(=O)CCCCP(=O)(O)O)c2ccc(Br)cc12` [Example 1, (Z)-5-(5-bromo-3-(1-cyano-2-(5-cyano-2-methoxyphenyl)vinyl)-1H-indol-1-yl)-5-oxopentylphosphonic acid], the concentration in solution in series [1] (setting [3]) (solubility at 24 h) came to 497 µM (≈ 270 µg/mL).
On the same count and under the same terms, to `COc1ccc2c(/C(C#N)=C/c3cc(C#N)ccc3OC)cn(C(=O)CCCCP(=O)(O)O)c2c1` [Example 4, (Z)-5-(3-(1-cyano-2-(5-cyano-2-methoxyphenyl)vinyl)-6-methoxy-1H-indol-1-yl)-5-oxopentylphosphonic acid] belongs 33 µM (≈ 16.3 µg/mL).
In the case of `COc1ccc(C#N)cc1/C=C(\C#N)c1c[nH]c2ccc(Br)cc12` [Example 38 of WO 2014/086964, (Z)-3-(2-(5-bromo-1H-indol-3-yl)-2-cyanovinyl)-4-methoxybenzonitrile, reference compound], the solubility at 24 h in series [1] (setting [2]) and in series [1] (setting [3]) was below 5 µM in each case.
Take `COc1ccc2c(/C(C#N)=C/c3cc(C#N)ccc3OC)cn(C(=O)CCCCP(=O)([O-])O)c2c1.[Na+]` [Example 11, sodium (Z)-hydrogen5-(3-(1-cyano-2-(5-cyano-2-methoxyphenyl)vinyl)-6-methoxy-1H-indol-1-yl)-5-oxopentylphosphonate]: the solubility at 24 h in series [1] (setting [2]) was 10 µM; in series [1] (setting [3]), 476 µM.
Regarding `COc1ccc(C#N)cc1/C=C(\C#N)c1cn(C(=O)CCCP(=O)([O-])[O-])c2ccc(Br)cc12.[Na+].[Na+]` [Example 13, disodium (Z)-4-(5-bromo-3-(1-cyano-2-(5-cyano-2-methoxyphenyl)vinyl)-1H-indol-1-yl)-4-oxobutylphosphonate], the solubility at 24 h in series [1] (setting [2]) was 19 µM; in series [1] (setting [3]), 45 µM.
As to `COc1ccc(C#N)cc1/C=C(\C#N)c1cn(C(=O)OCc2ccc(NC(=O)[C@H](CCCNC(N)=O)NC(=O)[C@@H](N)C(C)C)cc2)c2ccc(Br)cc12` [Example 21, hydrochloride], in the series “physchem”, the solubility is 471 µM.
In the case of `COc1ccc(C#N)cc1/C=C(\C#N)c1cn(C(=O)CCCP(=O)([O-])O)c2ccc(Br)cc12.[Na+]` [Example 8, sodium (Z)-hydrogen4-(5-bromo-3-(1-cyano-2-(5-cyano-2-methoxyphenyl)vinyl)-1H-indol-1-yl)-4 oxobutylphosphonate], the solubility at 24 h in series [1] (setting [2]) is below 5 µM; in series [1] (setting [3]) it was 71 µM.
The corresponding values for `COc1ccc(C#N)cc1/C=C(\C#N)c1cn(C(=O)CCCCP(=O)([O-])O)c2ccc(Br)cc12.[Na+]` [Example 6, Sodium (Z)-hydrogen5-(5-bromo-3-(1-cyano-2-(5-cyano-2-methoxyphenyl)vinyl)-1H-indol-1-yl)-5-oxopentylphosphonate] are 34 µM and 206 µM.
For `COc1ccc(C#N)cc1/C=C(\C#N)c1cn(C(=O)OCc2ccc(O[C@@H]3O[C@H](C(=O)O)[C@@H](O)[C@H](O)[C@H]3O)cc2)c2ccc(Br)cc12` [Example 19, (2S,3S,4S,5R,6S)-6-[4-[[5-bromo-3-[(Z)-1-cyano-2-(5-cyano-2-methoxy-phenyl)vinyl]indole-1-carbonyl]oxymethyl]phenoxy]-3,4,5-trihydroxy-tetrahydropyran-2-carboxylic acid], the solubility at 24 h in series [1] (setting [3]) worked out at 452 µM (≈ 318 µg/mL).
Consider `COc1ccc(C#N)cc1/C=C(\C#N)c1cn(C(=O)CCP(=O)([O-])O)c2ccc(Br)cc12.[Na+]` [Example 7, sodium (Z)-hydrogen3-(5-bromo-3-(1-cyano-2-(5-cyano-2-methoxyphenyl)vinyl)-1H-indol-1-yl)-3-oxopropylphosphonate], for which the results for the solubility at 24 h in series [1] (setting [2]) and in series [1] (setting [3]) were below 5 µM and 103 µM, respectively.
The corresponding values for `COc1ccc(C#N)cc1/C=C(\C#N)c1cn(C(=O)CCCP(=O)(O)O)c2ccc(Br)cc12` [Example 16, (S)-2,6-diaminohexanoic acid compound with (Z)-4-(5-bromo-3-(1-cyano-2-(5-cyano-2-methoxyphenyl)vinyl)-1H-indol-1-yl)-4-oxobutylphosphonic acid (2:1)] are below 10 µM and 35 µM (≈ 18.5 µg/mL).
In turn, `COc1ccc(C#N)cc1/C=C(\C#N)c1cn(C(=O)CCP(=O)(O)O)c2ccc(Br)cc12` [Example 2, (Z)-3-(5-bromo-3-(1-cyano-2-(5-cyano-2-methoxyphenyl)vinyl)-1H-indol-1-yl)-3-oxopropylphosphonic acid] showed a solubility at 24 h in series [1] (setting [3]) of 12 µM (≈ 6.17 µg/mL).
